Reference: publication PMC9948168, “Vanillin-Based Indolin-2-one Derivative Bearing a Pyridyl Moiety as a Promising Anti-Breast Cancer Agent via Anti-Estrogenic Activity” (ACS Omega, 2023)

What was measured:
Experiment in all cases: NCI-60 one-dose screening
Type in all cases: cell-based
MDA-MB-468 = conditions: Homo sapiens, MDA-MB-468, Breast Cancer, read-out: GI (%)
SNB-75 = conditions: Homo sapiens, SNB-75, CNS Cancer, read-out: GI (%)
NCI-H322M = conditions: Homo sapiens, Non-Small Cell Lung Cancer, read-out: GI (%)
A498 = conditions: Homo sapiens, A498, Renal Cancer, read-out: GI (%)
MCF7 = conditions: Homo sapiens, MCF7, 10 μM; MCF7, Breast Cancer; read-out: GI (%)
SNB-19 = conditions: Homo sapiens, SNB-19, CNS Cancer, read-out: GI (%)
MALME-3M = conditions: Homo sapiens, Melanoma, read-out: GI (%)
KM12 = conditions: Homo sapiens, KM12, Colon Cancer, read-out: GI (%)
MDA-MB-231/ATCC = conditions: Homo sapiens, Breast Cancer, read-out: GI (%)
NCI-H522 = conditions: Homo sapiens, NCI-H522, Non-Small Cell Lung Cancer, read-out: GI (%)
HCT-116 = conditions: Homo sapiens, HCT-116, Colon Cancer, read-out: GI (%)
OVCAR-8 = conditions: Homo sapiens, OVCAR-8, Ovarian Cancer, read-out: GI (%)
U251 = conditions: Homo sapiens, U-251, U251, CNS Cancer, read-out: GI (%)
HL-60(TB) = conditions: Homo sapiens, Leukemias, read-out: GI (%)
K-562 = conditions: Homo sapiens, K562, K-562, Leukemias, read-out: GI (%)
UACC-257 = conditions: Homo sapiens, UACC-257, Melanoma, read-out: GI (%)
BT-549 = conditions: Homo sapiens, BT-549, Breast Cancer, read-out: GI (%)
NCI-H460 = conditions: Homo sapiens, NCI-H460, Non-Small Cell Lung Cancer, read-out: GI (%)
SR = conditions: Homo sapiens, Leukemias, read-out: GI (%)
COLO 205 = conditions: Homo sapiens, COLO 205, Colon Cancer, read-out: GI (%)
OVCAR-3 = conditions: Homo sapiens, OVCAR-3, 10 μM; OVCAR-3, Ovarian Cancer; read-out: GI (%)
SW-620 = conditions: Homo sapiens, SW-620, Colon Cancer, read-out: GI (%)
SN12C = conditions: Homo sapiens, Renal Cancer, read-out: GI (%)
HOP-62 = conditions: Homo sapiens, HOP-62, Non-Small Cell Lung Cancer, read-out: GI (%)
HS 578T = conditions: Homo sapiens, Breast Cancer, read-out: GI (%)
HOP-92 = conditions: Homo sapiens, HOP-92, Non-Small Cell Lung Cancer, read-out: GI (%)
SF-295 = conditions: Homo sapiens, SF-295, CNS Cancer, read-out: GI (%)
PC-3 = conditions: Homo sapiens, PC-3, Prostate Cancer, read-out: GI (%)
SK-MEL-5 = conditions: Homo sapiens, SK-MEL-5, Melanoma, read-out: GI (%)
HCC-2998 = conditions: Homo sapiens, HCC-2998, Colon Cancer, read-out: GI (%)
CCRF-CEM = conditions: Homo sapiens, Leukemias, read-out: GI (%)
EKVX = conditions: Homo sapiens, Non-Small Cell Lung Cancer, read-out: GI (%)
SK-MEL-2 = conditions: Homo sapiens, SK-MEL-2, Melanoma, read-out: GI (%)
NCI-H226 = conditions: Homo sapiens, NCI-H226, Non-Small Cell Lung Cancer, read-out: GI (%)
OVCAR-5 = conditions: Homo sapiens, OVCAR-5, Ovarian Cancer, read-out: GI (%)
TK-10 = conditions: Homo sapiens, TK-10, Renal Cancer, read-out: GI (%)

SMILES | inhibition at 10 µM (MDA-MB-468) [%] | inhibition at 10 µM (SNB-75) [%] | inhibition at 10 µM (NCI-H322M) [%] | inhibition at 10 µM (A498) [%] | inhibition at 10 µM (MCF7) [%] | inhibition at 10 µM (SNB-19) [%] | inhibition at 10 µM (MALME-3M) [%] | inhibition at 10 µM (KM12) [%] | inhibition at 10 µM (MDA-MB-231/ATCC) [%] | inhibition at 10 µM (NCI-H522) [%] | inhibition at 10 µM (HCT-116) [%] | inhibition at 10 µM (OVCAR-8) [%] | inhibition at 10 µM (U251) [%] | inhibition at 10 µM (HL-60(TB)) [%] | inhibition at 10 µM (K-562) [%] | inhibition at 10 µM (UACC-257) [%] | inhibition at 10 µM (BT-549) [%] | inhibition at 10 µM (NCI-H460) [%] | inhibition at 10 µM (SR) [%] | inhibition at 10 µM (COLO 205) [%] | further results
COc1cc(/C=C2/C(=O)Nc3cc(Cl)ccc32)ccc1O [5c] | 28.5 | 59.5 | 15.7 | 11.1 | 54.4 | 24.6 | 8.69 | 6.51 | 50.8 | 25.4 | 30.9 | 13 | 33.5 | 13.9 | 19.6 | 2.41 | 23.8 | 8.53 | 43.3 | -7.08 | inhibition at 10 µM (OVCAR-3): 25.8%; inhibition at 10 µM (SW-620): 3.92%; inhibition at 10 µM (SN12C): 15.2%; inhibition at 10 µM (HOP-62): 29.2%; inhibition at 10 µM (HS 578T): 50.9%; inhibition at 10 µM (HOP-92): 24.8%; inhibition at 10 µM (SF-295): 15.8%; inhibition at 10 µM (PC-3): 21.6%; inhibition at 10 µM (SK-MEL-5): 29.1%; inhibition at 10 µM (HCC-2998): 0.25%; inhibition at 10 µM (CCRF-CEM): 17%; inhibition at 10 µM (EKVX): 77.2%; inhibition at 10 µM (SK-MEL-2): 7.35%; inhibition at 10 µM (NCI-H226): 10%; inhibition at 10 µM (OVCAR-5): -7.45%; inhibition at 10 µM (TK-10): -60.3%
COc1cc(/C=C2/C(=O)Nc3ccc(Cl)cc32)ccc1OCc1ccccc1 [6f] | 5.59 | 7.95 | 2.56 | -2.34 | 19.2 | 3.8 | -1.28 | -0.66 | 7.87 | 9.25 | -13 | -6.25 | 2.36 | 0.49 | -8.73 | -3.74 | -5.93 | -1.96 | -9.47 | -7.79 | inhibition at 10 µM (OVCAR-3): -6.72%; inhibition at 10 µM (SW-620): 4.03%; inhibition at 10 µM (SN12C): 3.2%; inhibition at 10 µM (HOP-62): 6.15%; inhibition at 10 µM (HS 578T): 3.94%; inhibition at 10 µM (HOP-92): 6.71%; inhibition at 10 µM (SF-295): -0.63%; inhibition at 10 µM (PC-3): 10%; inhibition at 10 µM (SK-MEL-5): 1.24%; inhibition at 10 µM (HCC-2998): -7.18%; inhibition at 10 µM (CCRF-CEM): 1.07%; inhibition at 10 µM (EKVX): 4.35%; inhibition at 10 µM (SK-MEL-2): -0.03%; inhibition at 10 µM (NCI-H226): 1.24%; inhibition at 10 µM (OVCAR-5): -0.26%; inhibition at 10 µM (TK-10): -15.1%
COc1ccc(COc2ccc(/C=C3/C(=O)Nc4ccc(Cl)cc43)cc2OC)cc1 [6i] | 5.64 | 11 | 7.01 | -6.49 | 22.3 | 2.61 | 2.07 | 0.58 | -0.06 | 5.36 | 4.18 | 1.18 | -2.19 | 0.37 | 6.52 | -2.09 | -13.3 | -2 | 24.1 | -10.1 | inhibition at 10 µM (OVCAR-3): -1.86%; inhibition at 10 µM (SW-620): 6.24%; inhibition at 10 µM (SN12C): 1.92%; inhibition at 10 µM (HOP-62): 3.08%; inhibition at 10 µM (HS 578T): -2.52%; inhibition at 10 µM (HOP-92): 7.13%; inhibition at 10 µM (SF-295): -0.88%; inhibition at 10 µM (PC-3): 11.3%; inhibition at 10 µM (SK-MEL-5): 0.21%; inhibition at 10 µM (HCC-2998): -4.23%; inhibition at 10 µM (CCRF-CEM): 1.43%; inhibition at 10 µM (EKVX): 11.4%; inhibition at 10 µM (SK-MEL-2): -5.26%; inhibition at 10 µM (NCI-H226): 3.61%; inhibition at 10 µM (OVCAR-5): 1.66%; inhibition at 10 µM (TK-10): -18.4%
COc1cc(C=C2C(=O)Nc3ccccc32)ccc1O (mixture of isomers) [5a] | 32.7 | 50.6 | 19.5 | 2.96 | 44.8 | 6.94 | 7.51 | 9.4 | 33.7 | 27.4 | 24.2 | 15.5 | 22.2 | 15.1 | 9.79 | 11.3 | 25.6 | 8.35 | 36 | -13.8 | inhibition at 10 µM (OVCAR-3): 19.4%; inhibition at 10 µM (SW-620): -0.49%; inhibition at 10 µM (SN12C): 16%; inhibition at 10 µM (HOP-62): 20.7%; inhibition at 10 µM (HS 578T): 47.9%; inhibition at 10 µM (HOP-92): 35%; inhibition at 10 µM (SF-295): 7.71%; inhibition at 10 µM (PC-3): 15.6%; inhibition at 10 µM (SK-MEL-5): 17.3%; inhibition at 10 µM (HCC-2998): -15%; inhibition at 10 µM (CCRF-CEM): 10.2%; inhibition at 10 µM (EKVX): 82.6%; inhibition at 10 µM (SK-MEL-2): 7.03%; inhibition at 10 µM (NCI-H226): -2.09%; inhibition at 10 µM (OVCAR-5): -2.51%; inhibition at 10 µM (TK-10): -90.5%
